Measurements published in ChEMBL document CHEMBL1129488, “Controlled modification of acidity in cholecystokinin B receptor antagonists: N-(1,4-benzodiazepin-3-yl)-N'-[3-(tetrazol-5-ylamino) phenyl]ureas” (J Med Chem, 1996).

Experiments:
[1] = buffer, pH 0
Description: The solubility is evaluated at a pH 0f 7.4

physchem [2] = assay: physchem
Description: pKa value is evaluated by nonlinear regression analysis of pH-dependent partition measurements.

physchem [3] = settings: buffer, pH 7.4
Description: Lipophilicity was measured at pH 7.4

[4] = pKa value for the compound is determined by potentiometric titration.; type: physicochemical
[5] = biological target: T1, Cholecystokinin receptor type A (Rattus norvegicus, UniProt P30551)
T1 sequence (P30551 whole entry): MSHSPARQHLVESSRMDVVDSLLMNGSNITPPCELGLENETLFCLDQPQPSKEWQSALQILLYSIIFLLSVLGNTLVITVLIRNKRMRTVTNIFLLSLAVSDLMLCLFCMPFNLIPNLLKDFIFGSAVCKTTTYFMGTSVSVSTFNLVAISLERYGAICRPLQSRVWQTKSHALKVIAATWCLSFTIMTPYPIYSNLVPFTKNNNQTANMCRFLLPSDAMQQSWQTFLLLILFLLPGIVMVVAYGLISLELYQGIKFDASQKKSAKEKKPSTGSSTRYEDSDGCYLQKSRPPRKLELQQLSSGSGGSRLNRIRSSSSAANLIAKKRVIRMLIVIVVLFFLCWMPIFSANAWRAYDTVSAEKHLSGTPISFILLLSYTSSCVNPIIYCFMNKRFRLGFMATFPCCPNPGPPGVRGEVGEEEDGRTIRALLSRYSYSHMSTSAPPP
Description: Inhibition of [125 I]BH CCK-8S binding to Cholecystokinin type A receptor in pancreatic tissue

[6] = pKa value is evaluated by nonlinear regression analysis of pH-dependent partition measurements; pKa could not be reliably determined due to poor solubility at low pHs; type: physicochemical

SMILES	S [1] [µg/mL]	logD (physchem [3])	pKa [4]	IC50 [5] [µM]	further results
CN1C(=O)[C@H](NC(=O)Nc2ccc3c(c2)N(c2nn[nH]n2)CC3)N=C(c2ccccc2)c2ccccc21	0.87	1.38	–	–	pKa (physchem [2]): 4.8
O=[N+]([O-])c1ccc(CNc2nn[nH]n2)cc1	–	–	5.53	–	–
Cc1ccc(NC(=O)N[C@@H]2N=C(C3CCCCC3)c3ccccc3N(C)C2=O)cc1N(C)c1nn[nH]n1	0.49	–	–	1.6	–
O=[N+]([O-])c1ccc2c(c1)CCN2c1nn[nH]n1	–	–	4.02	–	–
CN1C(=O)[C@H](NC(=O)Nc2cccc(CNc3nn[nH]n3)c2)N=C(c2ccccc2)c2ccccc21	0.02	1.47	–	3	pKa (physchem [2]): 5.9
O=[N+]([O-])c1ccc(Nc2nn[nH]n2)cc1	–	–	4.23	–	–
CN1C(=O)[C@H](NC(=O)Nc2cccc(Nc3nn[nH]n3)c2)N=C(c2ccccc2)c2ccccc21	0.1	0.89	–	3	pKa (physchem [2]): 5.1
Cc1ccc(NC(=O)N[C@@H]2N=C(c3ccccc3)c3ccccc3N(C)C2=O)cc1Nc1nn[nH]n1	0.88	1.37	–	3	pKa (physchem [2]): 1.37
CN(c1ccc([N+](=O)[O-])cc1)c1nn[nH]n1	–	–	4.46	–	–
CN1C(=O)[C@H](NC(=O)Nc2cccc(N(C)c3nn[nH]n3)c2)N=C(C2CCCCC2)c2ccccc21	60	–	–	–	–
Cc1ccc(NC(=O)N[C@@H]2N=C(C3CCCCC3)c3ccccc3N(C)C2=O)cc1Nc1nn[nH]n1	57	–	–	–	–
CN1C(=O)[C@H](NC(=O)Nc2cccc(CNc3nn[nH]n3)c2)N=C(C2CCCCC2)c2ccccc21	3.7	–	–	–	–
CN1C(=O)[C@H](NC(=O)Nc2cccc(N(C)c3nn[nH]n3)c2)N=C(c2ccccc2)c2ccccc21	0.16	1.14	–	3	pKa [6]: Insoluble
Cc1cc([N+](=O)[O-])ccc1N(C)c1nn[nH]n1	–	–	5.02	–	–
Cc1cc([N+](=O)[O-])ccc1Nc1nn[nH]n1	–	–	4.46	–	–
Cc1cccc(NC(=O)N[C@@H]2N=C(c3ccccc3)c3ccccc3N(C)C2=O)c1 [L-365260]	< 0.002	–	–	–	–
